Values quoted from earlier work, collected in patent publication US11707272B2, “Packaged antimicrobial medical device having improved shelf life and method of preparing same” (ETHICON, LLC, priority 2012, dated 2023).

Tested on: S. aureus
Conditions: measured in a suitable growth medium; as described by Bhargava, H. et al, American Journal of Infection Control, June 1996

**Q.** Which “minimum inhibitory concentration (MIC) against S. aureus” value does the source give for `Oc1cc(Cl)ccc1Oc1ccc(Cl)cc1Cl` [2,4,4′-trichloro-2′-hydroxydiphenyl ether] here?
**A.** 0.01 ppm
